Results: patent publication US20160324152A1, “Compositions And Methods For Killing And/Or Immobilizing Insects” (The United States of America, as represented by the …, priority 2015, published 2016)
Read-outs that look alike come from different tables or passages of the source.

System: Solenopsis invicta workers
Conditions: topical
Procedure: Topical Bioassay: Mortalities of S. invicta workers after topical treatment with Ethal TDA surfactants were determined. For ease of handling and obtaining uniform body weight, only large workers were used in the bioassay. Acetone was used as a solvent. The solution (10% w/v) was applied with a 0.779 μl capillary tube. All surfactants were tested at a concentration of 77.9 μg/ant. In the control, ants were only treated with 0.779 μl acetone. Treated ants were placed in a 30-ml capped cup at room temperature (˜23° C.) and dead ants were counted at 24 h. Three colonies were originally tested. There were 3-6 replicates for each colony. A single replicate consisted of 17 to 20 ants. In order to assess the mortality at 48 h, another three colonies were tested. For these three colonies, dead ants were counted at both 24 h and 48 h. Mortalities were adjusted using Abbott's formula (Abbott, W. S., J. Econ. Entomol., 18: 265-267 (1925)) before being used in statistical analysis. For analyzing 24 h mortality, data for all six colonies were used.
We also tested the toxicity of piperonyl butoxide (PBO) against red imported fire ants. […] Topical bioassay as described above was used: Mortalities of S. invicta workers after topical treatment with PBO were determined. […] Treated ants were placed in a 30-ml capped cup at room temperature (˜23° C.) and dead ants were counted at 24 h. […]

## CCCCCCCCCCCC(C)=O [2-tridecanone]
Colony 288, PBO 0 μg/ant
  LD50: 18.96 μg/ant
Colony 295, PBO 0 μg/ant
  LD50: 22.82 μg/ant
